Experimental findings from ChEMBL document CHEMBL1122733, “Synthesis and beta-adrenergic blocking activity of new aliphatic and alicyclic oxime ethers” (J Med Chem, 1984) are described below.

The data set can be described thus: Compound was evaluated for pKa value by potentiometric titration. It is filed as physicochemical.

Turning to `C/C(=N/OCC(O)CNC(C)(C)C)C1CC1` (stereo unspecified), the pKa (commonly the pH at which an ionisable group is half protonated) was found to be 9.45.

The compound `CC(C)OCC(O)CNC(C)(C)C` (stereo unspecified) displayed a pKa of 9.9.

Compound `CC(C)=NOCC(O)CNC(C)(C)C` (stereo unspecified) yielded a pKa of 9.42.

`CC1C/C(=N/OCC(O)CNC(C)(C)C)CC(C)(C)C1` (stereo unspecified) had a pKa of 9.41. This pKa and that of the compound before are within 0.2 log units of each other.

For `C=CC(C)(C)OCC(O)CNC(C)(C)C` (stereo unspecified), the pKa turned out to be 9.67.

Take `CC1CC(OCC(O)CNC(C)(C)C)CC(C)(C)C1` (stereo unspecified): the pKa was 9.94.

In the case of `CC(C)COCC(O)CNC(C)(C)C` (stereo unspecified), the pKa turned out to be 9.73.

On to `C/C(CC1CC1)=N/OCC(O)CNC(C)(C)C` (stereo unspecified), for which the pKa was found to be 9.57.

Compound `CC(C)(C)COCC(O)CNC(C)(C)C` (stereo unspecified) yielded a pKa of 9.68.

Take `CC(NOCC(O)CNC(C)(C)C)C1CC1` (stereo unspecified): the pKa came to 9.1.

On to `C/C(=N/OCC(O)CNC(C)(C)C)C(C)C` (stereo unspecified), for which the pKa was found to be 9.27. The pKa values of the last two compounds are within 0.2 log units of each other.

The compound `CC(C)(C)NCC(O)COCC1CC1` (stereo unspecified) registered a pKa of 9.73.

In the case of `CC(C)(C)NCC(O)COC(C1CC1)C1CC1` (stereo unspecified), the pKa came to 9.63.

Turning to `CC(OCC(O)CNC(C)(C)C)C1CC1` (stereo unspecified), the pKa came out at 9.76.

In turn, `CC(C)(C)NCC(O)CON=C(C1CC1)C1CC1` (stereo unspecified) gave a pKa of 9.64.

Regarding `CC(C)(C)NCC(O)CO/N=C\C1CC1` (stereo unspecified), the pKa turned out to be 9.64.
